Test results: patent publication US20050165082A1, “Methods of treating vasomotor symptoms” (Wyeth, priority 2003, published 2005)
Entries after “also recorded” stand apart in the source; their conditions may differ.

Tests used:
[1] = test system: naloxone-induced flush in morphine-dependent ovariectomized rats; experiment: Morphine-dependent rat model: naloxone-induced flush, tail skin temperature (TST); type: in vivo
Description: (§1) Dosing: All doses were prepared based on mg/kg. All compounds were administered intraperitoneally and dissolved and used at the following dosages: SSR149415 (V1b receptor antagonist, 3.0-30 mg/kg was dissolved in 5% DMSO in 5% Cremophor EL). SSR49059 (V1a receptor antagonist, 30 mg/kg was dissolved 10% DMSO/sterile H2O) and VPA-985 (V2 receptor antagonist, 30 mg/kg was dissolved 10% DMSO/sterile H2O). Naloxone (1.0 mg/kg was dissolved in sterile H2O) was injected subcutaneously.
Animals: Ovariectomized Sprague-Dawley rats (180-220 g) were obtained from a commercial vendor (Taconic, Germantown, N.Y.) and individually housed under 12 hours light/dark cycle in a room maintained at 25° C. Animals were provided with standard rat chow and water ad libitum.
Morphine-dependent model: Ovariectomized rats were injected once daily for 8-9 days with vehicle to minimize stress responses and then administered compound(s) on test day (10 rats/group). On day 4 of vehicle dosing, morphine dependence was induced by sc implantation of two slow-release morphine pellets (75 mg/pellet) in the dorsal scapular region. This model is based upon an established morphine-dependent naloxone-induced flush paradigm that is reversible by estrogen treatment (Katovich et al., Proceedings of the Society for Experimental Biology & Medicine, 1990. 193(2): p. 129-35). Four to six days after implantation, morphine withdrawal was induced with an opioid antagonist (naloxone) that causes a transient increase in TST. In a typical experiment, rats were administered their final dose of test compound 40 minutes prior to naloxone injection. Rats were mildly sedated with ketamine and a thermistor connected to a MacLab data acquisition system (CB Sciences, Dover, N.H.) was taped to the base of the tail. Tail skin temperature was then monitored continuously for 10 minutes to establish a baseline temperature. Naloxone was subsequently administered and TST was measured for an additional […] (total recording time 95 min).
Statistical analysis: To analyze changes in TST induced by naloxone in morphine-dependent rats, all data was analyzed using a two factors repeated measure. The factors were “treatment” and “time” (repeated). The model was fit to test whether there were significant differences in the responses between treatment groups. The data was analyzed at 5 minute intervals from 20 minutes (−20) prior to the naloxone administration (referred to as time 0) to 60 minutes after the treatment. Multiple comparisons (LSD p-values) among the treatment groups at each time point were used for the analysis, however, the changes in TST is greatest at 15 minutes post naloxone administration and this time point provides the best indicator of flush abatement. When appropriate estimation of the ED50 value was calculated. The ED50 value was determined using a log scale and the line was fit between the maximal (15 minutes post naloxone ΔTST) and minimal response (average baseline temperature prior to naloxone). The ED50 value is reported as the dose of test compound that abates 50% of the naloxone-induced flush.
Method used as described in the general method section under morphine-dependent rat model with the following exceptions: in the morphine-dependent model rats were injected intraperitoneally with vehicle (5% DMSO in 5% Cremophor EL) or SSR149415 (V1b receptor antagonist) which may be prepared as described in WO 01/55134, dissolved in 5% DMSO in 5% Cremophor EL and administered at 3.0 and 30 mg/kg 40 minutes prior to naloxone injection (FIGS. 1A and 1B). […] At the highest dose (30 mg/kg) tested antagonism of the V1b receptor produced a 60% abatement of the naloxone-induced flush. […]

[2] = test system: tail skin temperature in ovariectomized rats; experiment: OVX-induced thermoregulatory dysfunction telemetry model (TST); type: in vivo, rat; conditions: 30 mg/kg intraperitoneal, 30 minutes prior to onset of dark cycle
Description: as §1
Animals: Ovariectomized Sprague-Dawley rats (180-220 g) were obtained from a commercial vendor (Taconic, Germantown, N.Y.) and individually housed under 12 hours light/dark cycle in a room maintained at 25° C. […]
OVX-induced thermoregulatory dysfunction telemetry model: To determine the effect that test compounds had on thermoregulation, TST was monitored in ovariectomized rats by telemetry (6-7 rats/group). […] After a 7 day recovery period rats were administered a vehicle injection and TST monitored continuously for 12 hours (Day 1). Twenty-four hours later rats were administered either vehicle or test compound and TST monitored continuously for 12 hours (Day 2). […]
To analyze changes in TST induced by test compounds in the thermoregulatory dysfunction model a 2-day paradigm was used. […] On Day 2, test compound is administered and TST readings are recorded every 30 minutes as described above. […]

[3] = 30 mg/kg intraperitoneal, 15 minutes post-naloxone

Row | SMILES | effect on naloxone-induced flush at maximal flush (ΔTST) [1, 3] | effect on naloxone-induced flush at maximal flush (ΔTST) ([1]; 3.0 mg/kg intraperitoneal, 15 minutes post-naloxone) | abatement of the naloxone-induced flush ([1]; 30 mg/kg intraperitoneal (highest dose), 40 minutes prior to naloxone) [%] | changes in TST over time, naloxone-induced flush ([1]; 3.0 and 30 mg/kg intraperitoneal, 40 minutes prior to naloxone) | ED50 ([1]; Rattus norvegicus, ip, intraperitoneal, 40 minutes prior to naloxone, maximal flush, 15 minutes post-naloxone, read-out: ED50 value, abatement of naloxone-induced flush) [mg/kg] | change in TST (ΔTST) relative to vehicle, active phase [2]
1 | COc1ccc(S(=O)(=O)N2c3ccc(Cl)cc3[C@](O)(c3ccccc3Cl)[C@@H]2C(=O)N2CCC[C@H]2C(N)=O)cc1OC [SR49059] | lack efficacy in attenuating the naloxone-induced flush; also recorded: failed to abate the naloxone-induced flush |  |  |  |  | 
2 | COc1ccc(S(=O)(=O)N2C(=O)C(c3ccccc3OC)(N3C[C@H](O)C[C@H]3C(=O)N(C)C)c3cc(Cl)ccc32)c(OC)c1 (stereo partly drawn) [SSR149415, (2S,4R)-1-[5-Chloro-1-[(2,4-dimethoxyphenyl)-sulfonyl]-3-(2-methoxy-phenyl)-2-oxo-2,3-dihydro-1H-indol-3-yl]-4-hydroxy-N,N-dimethyl-2-pyrrolidine carboxamide] | significantly and dose-dependently abated the naloxone-induced flush | no effect | 60 | dose-dependently abates the naloxone-induced flush | 12.1 | significant decrease in ΔTST; also recorded: able to restore normal thermoregulation; also recorded: significantly and transiently decreased TST
3 | Cc1ccc(F)cc1C(=O)Nc1ccc(C(=O)N2Cc3cccn3Cc3ccccc32)c(Cl)c1 [VPA-985] | lack efficacy in attenuating the naloxone-induced flush; also recorded: failed to abate the naloxone-induced flush |  |  |  |  | 
